Among the data in US20260373134A1, “INHIBITORS OF DYRK1A” (Beth Israel Deaconess Medical Center, Inc., priority 2023, published 2026) are Kd, IC50 and inhibition values, retold here.

As a reminder, the Kd is the equilibrium constant for the complex coming apart. A word on the IC50: it is the concentration that gives 50% inhibition. A low value points to higher potency.

Where two headings read alike, the source gives them in different places. A value given as a limit tells only on which side of the number the result lay.

For test [1], the target named is T1, DYRK1A (Homo sapiens, UniProt Q13627).
T1 construct: T7 phage (kinase-tagged T7 phage), or a DNA tag for qPCR if produced in HEK-293; made in house; host or cells: E. coli (BL21-derived, T7 phage) for most kinases, HEK-293 for the remaining ones
The test is described as follows: Competitive binding assay, KD to DYRK1A. The procedure: (§1) Methods: a competitive binding assay was used as the primary screen to measure the binding affinity (KD) to DYRK1A. Selectivity against DYRK1B/2 as well as the related CLK1-4 was determined by comparison of the KD in each of the enzymes. Cellular activity of representative compounds was obtained by measuring the p-Tau levels in HEK293 cells expressing human full-length DYRK1A and Tau.
(§2) Kinase assays. For most assays, kinase-tagged T7 phage strains were prepared in an E. coli host derived from the BL21 strain. E. coli were grown to log-phase and infected with T7 phage and incubated with shaking at 32 °C until lysis. The lysates were centrifuged and filtered to remove cell debris. The remaining kinases were produced in HEK-293 cells and subsequently tagged with DNA for qPCR detection. Streptavidin-coated magnetic beads were treated with biotinylated small molecule ligands for 30 minutes at room temperature to generate affinity resins for kinase assays. The liganded beads were blocked with excess biotin and washed with blocking buffer (SeaBlock (Pierce), 1% BSA, 0.05% Tween 20, 1 mM DTT) to remove unbound ligand and to reduce non-specific binding. […] Test compounds were prepared as 111× stocks in 100% DMSO. Kas were determined using an 11-point 3-fold compound dilution series with three DMSO control points. All compounds for Kd measurements are distributed by acoustic transfer (non-contact dispensing) in 100% DMSO. The compounds were then diluted directly into the assays such that the final concentration of DMSO was 0.9%. All reactions performed in polypropylene 384-well plate. Each was a final volume of 0.02 mL. The assay plates were incubated at room temperature with shaking for 1 hour and the affinity beads were washed with wash buffer (1×PBS, 0.05% Tween 20). The beads were then re-suspended in elution buffer (1×PBS, 0.05% Tween 20, 0.5 μM non-biotinylated affinity ligand) and incubated at room temperature with shaking for 30 minutes. The kinase concentration in the eluates was measured by qPCR.

The target in test [2] is T2, Tau phosphorylation (human DYRK1A and Tau) in HEK293 cells (Homo sapiens, UniProt Q13627).
T2 construct: p-Tau ELISA
The test is described as follows: Kinase cellular assay: p-Tau levels in HEK293 cells expressing full-length human DYRK1A and Tau. It is filed as cell-based. The note with it: Table 1a. As for the experimental part:
as §1
Kinase Cellular Assay: HEK293 human embryonic kidney cells were transiently co-transfected with vectors encoding full-length human DYRK1A and Tau. Cells were dispensed into 96-well plates at a number previously determined by cell titration and signal optimization for the DYRK1A assay. Compounds were diluted to 200× final assay concentration in DMSO. Eight 3-fold or 4-fold serial dilutions were prepared for each compound in 100% DMSO. Compounds were then diluted in tissue culture medium to 10× final assay concentration and 5% DMSO. Compounds were added to the cells in 96-well plates (10-fold dilution in medium) for a final concentration of 1× compound and 0.5% DMSO. For positive (high signal) controls, cells were treated with 0.5% DMSO alone. For negative (low signal) controls, cells were treated with 20 μM harmine including 0.5% DMSO final concentration. Cells were incubated with compound at 37 °C for 2 hours. Cells were lysed, and lysates were transferred to an ELISA plate that had been previously coated with antibody to capture the substrate (human Tau). Plates were washed then incubated with an antibody to detect phosphorylation of Tau. Plates were washed then incubated with HRP-linked secondary antibody. Plates were washed, then HRP substrate was added. Absorbance was read at 450 nm. Percent inhibition values were calculated from absorbance readings based on positive and negative control values, and according to the following formula: (% INH=((positive control−sample)/(positive control−negative control))[…]. Z′ values were calculated based on the following formula: 1−[(3×standard deviation of positives+3×standard deviation of negatives)/(average positive−average negative)]. Percent inhibition values were plotted vs. the log of compound concentrations utilizing GraphPad Prism software. IC50s were determined after utilizing sigmoidal dose response curve fitting to generate the curves.

Test [3] deals with T1, DYRK1A. The test can be described thus: Kinase assay, % inhibition at fixed concentrations (Table 1b). Format: binding. The note with it: for inhibition at 10 µM: read-out: % inh at 10 μM. As for the experimental part: as §1, §2
Test [4] has as its system INFg. The test is described as follows: T-cell inflammation inhibition assay (anti-CD3 stimulated PBMCs), IFN gamma. Format: cell-based. The note with it: Homo sapiens, PBMC, read-out: % inh at 5 μM INFg. The procedure: (§3) T-cell Inflammation Inhibition Assay Protocol: Day 1, High binding plates were coated with anti-CD3 (clone UCHT-1, 2 μg/mL) and isotype IgG1 using PBS 1× and incubated overnight at 4 °C. Day 2: Cryopreserved PBMCs were drip thawed and diluted to the appropriate density and seeded into U bottom 96-well polypropylene plates (1.2×10^5 cells per well) with 228 μL per well of culture medium (RPMI 1640, 10% heat-inactivated FBS, 1% penicillin/streptomycin, 2 mM L-glutamine). Cells were incubated at 37 °C, 5% CO2 for 1 hour prior to the addition of test compounds. Test compounds were solubilized in DMSO and further diluted to 20× with cell culture medium. Compounds were added to the PBMCs in volumes of 12 μL (1×) in triplicate and incubated for 1 hour at 37 °C, 5% CO2. For reference compound, 12 μL of dexamethasone (100 nM) was added to the control wells according to the plate map and incubated for 1 hour at 37 °C, 5% CO2. After 1 hour incubation, 200 μL of cells (1×10^5) treated with test compounds or controls were transferred to the anti-CD3 coated plates and incubated for 24 hours at 37 °C, 5% CO2, For positive and negative controls, transferred 200 μL (1×10^5) of cells to the coated plate with anti-CD3 or isotype IgG1. Plates were centrifuged at 200×g for 10 minutes. Cell culture supernatants were collected and stored at −80 °C until needed for analysis. Cytokine levels in each sample were determined using Luminex methodology, per the manufacturer's protocol, Luminex assessment of cytokine levels in cell culture supernatants in tissue culture medium, was performed per manufacturer's protocol using the Human Cytokine/Chemokine Magnetic bead panel from Millipore Sigma (catalogue No. HCYTOMAG-60K) with standards range 3.2, 16, 80, 400, 2,000, 10,000 pg/mL. Cytokines Measured: The following cytokines were measured for a complete cytokine response profile. Human panel, T cell (neat): IL-2, IL-17, […].

The subject of test [5] is IL-2. The test is described as follows: T-cell inflammation inhibition assay (anti-CD3 stimulated PBMCs), IL-2. Format: cell-based. The note with it: Homo sapiens, PBMC, read-out: % inh at 5 μM IL2. As for the experimental part:
as §3

The subject of test [6] is IL-17. The test is described as follows: T-cell inflammation inhibition assay (anti-CD3 stimulated PBMCs), IL-17. The following applies: Homo sapiens, PBMC, read-out: % inh at 5 μM IL17. Format: cell-based. As for the experimental part:
as §3

With `CC1(COC(=O)Nc2nc3cc(-c4ccncc4)ccc3[nH]2)COC1` [Compound 1, (3-methyloxetan-3-yl)methyl (5-(pyridin-4-yl)-1H-benzo[d]imidazol-2-yl)carbamate], the Kd in test [1] (read-out: KD) turned out to be 0.17 nM. Further, in test [1] (read-out: KD (bound)), the dissociation constant (Kd) is less than 1 nM. For the same compound, in test [2], the half-maximal inhibitory concentration (IC50) is 37 nM. For the same compound, in test [3], the inhibition at 1 µM is 100% and the inhibition at 10 µM was determined as 100%. The inhibition at 0.1 µM in test [3] (read-out: % inh at 0.1 μM) was found to be 100%.
For `COC(=O)Nc1nc2cc(-c3ccnc(C)c3)ccc2[nH]1` [Compound 2, Methyl (5-(2-methylpyridin-4-yl)-1H-benzo[d]imidazol-2-yl)carbamate], the inhibition at 5 µM in test [4] came out at 31.4%; in test [4] (second value), 11.5%; in test [5], 46.5%; in test [5] (second value), 42.3%; in test [6] it was 22.8%; in test [6] (second value) it was 35.9%. In addition, the figures for the dissociation constant (Kd) in test [1] (read-out: KD) and in test [1] (read-out: KD (bound)) were 0.72 nM and less than 1 nM, respectively. Also, the midpoint of inhibition in test [2], the IC50, lay at 280 nM.
Take `Cc1cc(-c2ccc3[nH]c(NC(=O)OCC4COC4)nc3c2)ccn1` [Compound 5, Oxetan-3-ylmethyl (5-(2-methylpyridin-4-yl)-1H-benzo[d]imidazol-2-yl)carbamate]: the inhibition at 5 µM in test [4] came to 58.8%; in test [4] (second value), 46%; in test [5], 78.2%; in test [5] (second value) it was 59.3%; in test [6] it was 47.8%; in test [6] (second value), 51.8%. Besides, the figures for the equilibrium dissociation constant (Kd) in test [1] (read-out: KD) and in test [1] (read-out: KD (bound)) were 0.33 nM and less than 1 nM, respectively. In addition, the concentration for half-maximal inhibition (IC50) in test [2] turned out to be 55 nM.
As for `Cc1cc(-c2ccc3[nH]c(NC(=O)NCC4(C)COC4)nc3c2)ccn1` [Compound 6, 1-((3-Methyloxetan-3-yl)methyl)-3-(5-(2-methylpyridin-4-yl)-1H-benzo[d]imidazol-2-yl)urea], the inhibition at 5 µM was determined as 30% in test [4]; 38.9% in test [5]; 35.8% in test [5] (second value); 9.3% in test [6]; 7.3% in test [6] (second value). The same compound displayed an IC50 in test [2] of 827 nM.
Regarding `O=C(Nc1nc2cc(-c3cccnc3)ccc2[nH]1)OCC1COC1` [Compound 7, Oxetan-3-ylmethyl (5-(pyridin-3-yl)-1H-benzo[d]imidazol-2-yl)carbamate], the results for the inhibition at 5 µM in test [4], in test [5] and in test [5] (second value) were 24.4%, 36.9% and 43.4%, respectively.
As for `O=C(Nc1nc2cc(-c3ccncc3)ccc2[nH]1)OCC1COC1` [Compound 10, Oxetan-3-ylmethyl (5-(pyridin-4-yl)-1H-benzo[d]imidazol-2-yl)carbamate], the inhibition at 5 µM in test [4] came out at 57.5%; in test [4] (second value) it was 39.9%; in test [5], 76.1%; in test [5] (second value) it was 59.8%; in test [6], 35%; in test [6] (second value), 30.4%. This compound also displayed a half-maximal inhibitory concentration (IC50) in test [2] of 26 nM.
Consider `CC1(CNC(=O)Nc2nc3cc(-c4ccncc4)ccc3[nH]2)COC1` [Compound 11, 1-((3-Methyloxetan-3-yl)methyl)-3-(5-(pyridin-4-yl)-1H-benzo[d]imidazol-2-yl)urea], for which the results for the equilibrium dissociation constant (Kd) in test [1] (read-out: KD) and in test [1] (read-out: KD (bound)) were 0.33 nM and less than 1 nM, respectively.
For the compound `Cc1cc(-c2ccc3[nH]c(NC(=O)OCC4(C)COC4)nc3c2)ccn1` [Compound 12, (3-methyloxetan-3-yl)methyl (5-(2-methylpyridin-4-yl)-1H-benzo[d]imidazol-2-yl)carbamate], the figures for the dissociation constant (Kd) in test [1] (read-out: KD) and in test [1] (read-out: KD (bound)) were 0.14 nM and less than 1 nM, respectively.
Regarding `COC(=O)Nc1nc2cc(OC)ccc2[nH]1` [Compound 17, Methyl (5-methoxy-1H-benzo[d]imidazol-2-yl)carbamate], in test [3], the inhibition at 10 µM stood at 69%.
As to `COc1ccc2[nH]c(N)nc2c1` [Compound 18, 5-Methoxy-1H-benzo[d]imidazol-2-amine], the inhibition at 10 µM in test [3] worked out at 11%.
On the same count and under the same terms, the result for `COc1ccc2[nH]c(NC(=O)OCCN(C)C)nc2c1` [Compound 19, 2-(Dimethylamino)ethyl (5-methoxy-1H-benzo[d]imidazol-2-yl)carbamate] reads 51%.
Take `COc1ccc2[nH]c(NC(=O)OCC3(C)COC3)nc2c1` [Compound 20, (3-Methyloxetan-3-yl)methyl (5-methoxy-1H-benzo[d]imidazol-2-yl)carbamate]: in test [3], the inhibition at 1 µM was 63% and the inhibition at 10 µM is 96.4%.
For `COc1ccc2[nH]c(NC(=O)OCc3cccc(F)c3)nc2c1` [Compound 21, 3-Fluorobenzyl (5-methoxy-1H-benzo[d]imidazol-2-yl)carbamate], in test [3], the inhibition at 10 µM was 69%.
